In ChEMBL document CHEMBL4229328, “Quest for Novel Chemical Entities through Incorporation of Silicon in Drug Scaffolds” (J Med Chem, 2018):
≈ marks a conversion by molar mass, not a printed value.

Columns and labels:
Chymotrypsinogen A = Chymotrypsinogen A (Bos taurus, UniProt P00766); assay: Inhibition of bovine alpha-chymotrypsin using succinyl Ala-Ala-Pro-Phe-p-nitroanilide as substrate after 1 hr by Dixon plot analysis
[1] = target: E3 ubiquitin-protein ligase XIAP (Homo sapiens, UniProt P98170); assay: Inhibition of N-terminal His-tagged XIAP BIR3 domain (241 to 356 residues) (unknown origin) using fluorescein labeled SMAC peptide as substrate after 60 mins by TR-FRET assay
E3 ubiquitin-protein ligase XIAP (Homo sapiens, UniProt P98170), sequence (P98170 whole entry, the tested form may be a part): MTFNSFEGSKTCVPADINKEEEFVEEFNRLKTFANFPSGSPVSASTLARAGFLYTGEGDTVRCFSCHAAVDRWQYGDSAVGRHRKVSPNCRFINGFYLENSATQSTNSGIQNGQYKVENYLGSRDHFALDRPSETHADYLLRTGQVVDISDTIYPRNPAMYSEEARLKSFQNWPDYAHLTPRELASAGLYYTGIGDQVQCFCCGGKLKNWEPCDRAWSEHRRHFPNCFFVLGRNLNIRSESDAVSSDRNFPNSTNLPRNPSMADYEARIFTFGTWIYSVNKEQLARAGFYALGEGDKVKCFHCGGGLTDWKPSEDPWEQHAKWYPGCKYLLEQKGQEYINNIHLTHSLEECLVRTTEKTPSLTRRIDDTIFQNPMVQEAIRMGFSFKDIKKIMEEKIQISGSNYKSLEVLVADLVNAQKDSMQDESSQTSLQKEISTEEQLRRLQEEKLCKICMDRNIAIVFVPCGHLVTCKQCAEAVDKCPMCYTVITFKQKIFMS

[2] = target: E3 ubiquitin-protein ligase XIAP (Homo sapiens, UniProt P98170, C202A/C213G); assay: Inhibition of N-terminal His-tagged XIAP BIR2-3 domain (125 to 356 residues) C202A/C213G mutant (unknown origin) using fluorescein labeled SMAC peptide as substrate after 60 mins by HTRF assay
E3 ubiquitin-protein ligase XIAP (Homo sapiens, UniProt P98170, C202A/C213G), sequence (P98170 whole entry C202A/C213G, the tested form may be a part): as the sequence (P98170 whole entry, the tested form may be a part) above, with C202A, C213G counted along it

MCF7 = assay: Cytotoxicity against human MCF7 cells after 24 hrs; format: functional, cell-based; conditions: MCF7, 24 h
Histone deacetylase 1 = Histone deacetylase 1 (Homo sapiens, UniProt Q13547); assay: Inhibition of human recombinant HDAC1 using Ac-Leu-Gly-Lys(Ac)-AMC as substrate preincubated for 30 mins followed by substrate addition and measured after 15 to 30 mins
Histone deacetylase 1, sequence (Q13547 whole entry): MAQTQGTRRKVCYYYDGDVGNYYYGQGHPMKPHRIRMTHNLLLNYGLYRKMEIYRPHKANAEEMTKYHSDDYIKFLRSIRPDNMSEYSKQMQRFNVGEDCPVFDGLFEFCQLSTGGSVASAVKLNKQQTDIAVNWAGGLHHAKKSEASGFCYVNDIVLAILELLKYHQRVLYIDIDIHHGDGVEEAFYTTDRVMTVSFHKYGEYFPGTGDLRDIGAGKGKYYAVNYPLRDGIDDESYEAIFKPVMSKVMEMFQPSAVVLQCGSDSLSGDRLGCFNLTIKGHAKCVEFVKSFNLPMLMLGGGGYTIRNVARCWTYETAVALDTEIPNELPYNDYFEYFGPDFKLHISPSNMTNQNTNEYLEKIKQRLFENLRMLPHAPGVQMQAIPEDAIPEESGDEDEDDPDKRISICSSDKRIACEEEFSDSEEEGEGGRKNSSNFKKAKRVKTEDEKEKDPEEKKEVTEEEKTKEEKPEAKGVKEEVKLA

Histone deacetylase 2 = Histone deacetylase 2 (Homo sapiens, UniProt Q92769)
Histone deacetylase 2, sequence (Q92769 whole entry): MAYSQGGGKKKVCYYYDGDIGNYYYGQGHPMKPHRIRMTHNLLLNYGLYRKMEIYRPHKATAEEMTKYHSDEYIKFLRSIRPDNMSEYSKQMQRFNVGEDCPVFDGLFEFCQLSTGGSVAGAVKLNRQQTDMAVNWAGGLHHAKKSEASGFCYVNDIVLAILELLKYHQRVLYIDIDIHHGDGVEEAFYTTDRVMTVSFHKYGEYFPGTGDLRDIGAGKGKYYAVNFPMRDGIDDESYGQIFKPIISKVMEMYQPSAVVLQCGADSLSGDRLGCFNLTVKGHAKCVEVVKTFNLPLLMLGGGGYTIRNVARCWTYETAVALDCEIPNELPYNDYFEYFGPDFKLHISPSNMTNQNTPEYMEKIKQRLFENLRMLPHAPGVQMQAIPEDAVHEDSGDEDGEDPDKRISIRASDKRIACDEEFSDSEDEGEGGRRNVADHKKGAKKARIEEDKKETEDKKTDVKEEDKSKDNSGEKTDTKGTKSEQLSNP

Escherichia coli = format: functional, C3000 ATCC 15597
Staphylococcus aureus = format: functional
Pseudomonas aeruginosa = format: functional, ATCC 10145
Enterococcus faecalis = format: functional, ATCC 19433
[3] = target: Angiotensin-converting enzyme (Homo sapiens, UniProt P12821); assay: Inhibition of human ACE using Hip-His-Leu-OH as substrate after 1 hr by fluorimetric method
Angiotensin-converting enzyme, sequence (P12821 whole entry): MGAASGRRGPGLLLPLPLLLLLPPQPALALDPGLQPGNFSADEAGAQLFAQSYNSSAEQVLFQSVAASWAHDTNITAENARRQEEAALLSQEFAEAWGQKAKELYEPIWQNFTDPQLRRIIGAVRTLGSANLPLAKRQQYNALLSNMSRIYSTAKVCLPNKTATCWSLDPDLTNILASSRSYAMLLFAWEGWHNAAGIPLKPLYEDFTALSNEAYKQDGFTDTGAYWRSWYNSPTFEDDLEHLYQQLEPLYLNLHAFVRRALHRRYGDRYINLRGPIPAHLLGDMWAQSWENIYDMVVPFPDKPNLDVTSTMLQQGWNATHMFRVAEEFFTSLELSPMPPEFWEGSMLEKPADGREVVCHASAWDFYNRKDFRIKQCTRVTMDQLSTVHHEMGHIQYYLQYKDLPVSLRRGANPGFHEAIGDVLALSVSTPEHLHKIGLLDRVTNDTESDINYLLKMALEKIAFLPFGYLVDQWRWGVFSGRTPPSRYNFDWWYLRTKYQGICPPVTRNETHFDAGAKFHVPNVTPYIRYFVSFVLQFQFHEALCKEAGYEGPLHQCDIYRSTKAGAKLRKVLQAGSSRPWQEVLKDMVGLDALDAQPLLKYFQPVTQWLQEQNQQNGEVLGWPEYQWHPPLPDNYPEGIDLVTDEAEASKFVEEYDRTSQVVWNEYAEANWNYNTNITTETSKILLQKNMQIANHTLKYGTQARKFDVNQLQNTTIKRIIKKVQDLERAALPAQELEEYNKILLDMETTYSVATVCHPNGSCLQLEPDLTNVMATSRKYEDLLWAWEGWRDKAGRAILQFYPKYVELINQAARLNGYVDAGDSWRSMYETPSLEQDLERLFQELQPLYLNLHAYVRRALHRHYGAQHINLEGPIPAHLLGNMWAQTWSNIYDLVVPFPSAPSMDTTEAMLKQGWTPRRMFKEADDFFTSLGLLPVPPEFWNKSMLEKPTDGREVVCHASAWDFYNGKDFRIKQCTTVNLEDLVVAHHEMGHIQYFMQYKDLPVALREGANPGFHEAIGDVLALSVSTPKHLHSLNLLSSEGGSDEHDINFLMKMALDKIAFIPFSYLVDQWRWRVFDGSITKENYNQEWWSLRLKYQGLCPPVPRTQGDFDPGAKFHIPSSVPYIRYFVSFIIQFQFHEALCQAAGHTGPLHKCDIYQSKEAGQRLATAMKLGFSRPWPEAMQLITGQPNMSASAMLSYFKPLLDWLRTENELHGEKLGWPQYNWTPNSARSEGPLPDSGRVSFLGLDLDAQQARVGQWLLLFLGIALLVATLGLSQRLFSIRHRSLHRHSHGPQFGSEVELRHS

[4] = target: Sigma non-opioid intracellular receptor 1 (Cavia porcellus, UniProt Q60492); assay: Displacement of [3H]-(+)pentazocine from sigma-1 receptor in guinea pig brain membranes after 180 mins by scintillation counting method; format: cell membranes, Membrane
Sigma non-opioid intracellular receptor 1, sequence (Q60492 whole entry): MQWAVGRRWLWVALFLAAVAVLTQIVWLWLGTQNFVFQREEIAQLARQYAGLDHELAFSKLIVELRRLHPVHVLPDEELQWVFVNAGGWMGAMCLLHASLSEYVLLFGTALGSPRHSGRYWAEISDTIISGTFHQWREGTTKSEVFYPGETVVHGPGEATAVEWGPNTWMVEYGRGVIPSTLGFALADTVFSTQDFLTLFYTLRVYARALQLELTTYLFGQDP

[5] = target: T1, Sigma intracellular receptor 2 (Rattus norvegicus, UniProt Q5U3Y7); assay: Displacement of [3H]-DTG from sigma-2 receptor in rat liver membranes after 180 mins by scintillation counting method; format: cell membranes, Membrane
T1 sequence (Q5U3Y7 whole entry): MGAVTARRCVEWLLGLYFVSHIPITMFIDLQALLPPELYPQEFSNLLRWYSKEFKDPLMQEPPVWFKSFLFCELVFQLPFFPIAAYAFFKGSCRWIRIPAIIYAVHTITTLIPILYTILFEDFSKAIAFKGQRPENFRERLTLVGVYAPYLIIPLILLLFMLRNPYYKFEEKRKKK

HT-29 = assay: Cytotoxicity against human HT-29 cells after 24 hrs; format: functional, cell-based; conditions: HT-29, 24 h
[6] = target: Sodium-dependent serotonin transporter (Homo sapiens, UniProt P31645); format: cell-based, HEK293
[7] = target: Sodium-dependent noradrenaline transporter (Homo sapiens, UniProt P23975); assay: Inhibition of human NET expressed in MDCK cells assessed as decrease in [3H]-noradrenaline reuptake after 10 mins by scintillation counting method; format: cell-based
Sodium-dependent noradrenaline transporter, sequence (P23975 whole entry): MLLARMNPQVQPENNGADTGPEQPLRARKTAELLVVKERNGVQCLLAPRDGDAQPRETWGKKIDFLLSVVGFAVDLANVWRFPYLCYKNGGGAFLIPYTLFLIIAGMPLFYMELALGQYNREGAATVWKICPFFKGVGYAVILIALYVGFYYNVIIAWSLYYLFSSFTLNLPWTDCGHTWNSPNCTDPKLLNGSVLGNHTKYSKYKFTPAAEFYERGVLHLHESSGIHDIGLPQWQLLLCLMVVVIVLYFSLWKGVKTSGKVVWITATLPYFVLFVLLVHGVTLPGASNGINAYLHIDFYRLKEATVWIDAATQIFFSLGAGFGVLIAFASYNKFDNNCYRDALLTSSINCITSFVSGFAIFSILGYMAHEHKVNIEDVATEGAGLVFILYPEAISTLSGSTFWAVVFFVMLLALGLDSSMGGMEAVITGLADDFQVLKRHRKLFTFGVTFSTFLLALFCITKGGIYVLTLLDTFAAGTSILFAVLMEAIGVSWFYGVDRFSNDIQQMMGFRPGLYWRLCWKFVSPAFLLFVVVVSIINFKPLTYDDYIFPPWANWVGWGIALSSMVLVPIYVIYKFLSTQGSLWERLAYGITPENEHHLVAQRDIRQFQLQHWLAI

[8] = target: Sodium-dependent dopamine transporter (Homo sapiens, UniProt Q01959); assay: Inhibition of human DAT expressed in CHOK1 cells assessed as decrease in [3H]-dopamine reuptake after 10 mins by scintillation counting method; format: cell-based
Sodium-dependent dopamine transporter, sequence (Q01959 whole entry): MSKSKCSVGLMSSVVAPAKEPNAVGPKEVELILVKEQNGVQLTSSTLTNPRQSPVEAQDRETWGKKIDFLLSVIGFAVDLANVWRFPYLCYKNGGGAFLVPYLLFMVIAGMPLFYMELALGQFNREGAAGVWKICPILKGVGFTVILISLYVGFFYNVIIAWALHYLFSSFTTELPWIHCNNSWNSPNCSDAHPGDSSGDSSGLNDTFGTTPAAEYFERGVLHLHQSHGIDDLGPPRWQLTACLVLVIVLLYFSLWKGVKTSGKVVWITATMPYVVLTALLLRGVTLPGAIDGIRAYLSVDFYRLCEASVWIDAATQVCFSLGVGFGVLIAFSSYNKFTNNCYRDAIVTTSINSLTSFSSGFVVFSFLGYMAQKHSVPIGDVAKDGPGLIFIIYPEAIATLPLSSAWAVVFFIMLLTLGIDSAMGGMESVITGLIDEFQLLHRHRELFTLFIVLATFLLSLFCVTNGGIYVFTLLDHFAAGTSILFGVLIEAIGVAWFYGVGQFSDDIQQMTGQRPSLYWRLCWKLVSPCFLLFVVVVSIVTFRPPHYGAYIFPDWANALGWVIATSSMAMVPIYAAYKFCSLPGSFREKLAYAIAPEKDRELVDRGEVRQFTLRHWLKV

Protein Gpr81 = target: T2, Protein Gpr81 (Rattus norvegicus, UniProt G3V906); assay: Agonist activity at rat GPR81 expressed in T-REx-CHO cells assessed as inhibition of forskolin-stimulated cAMP accumulation preincubated for 30 mins followed by forskolin stimulation and measured after 20 mins by TR-FRET assay; format: cell-based
T2 sequence (G3V906 whole entry): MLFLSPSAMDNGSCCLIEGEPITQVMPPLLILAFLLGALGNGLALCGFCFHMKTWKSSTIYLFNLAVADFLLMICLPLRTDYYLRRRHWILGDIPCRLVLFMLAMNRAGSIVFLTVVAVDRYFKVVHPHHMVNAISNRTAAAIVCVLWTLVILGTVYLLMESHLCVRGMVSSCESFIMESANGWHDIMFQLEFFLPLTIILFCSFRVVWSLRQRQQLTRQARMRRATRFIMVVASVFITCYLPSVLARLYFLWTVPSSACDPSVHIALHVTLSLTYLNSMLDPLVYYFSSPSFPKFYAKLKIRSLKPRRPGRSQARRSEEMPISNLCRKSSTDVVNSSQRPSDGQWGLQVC

[9] = target: Hydroxycarboxylic acid receptor 2 (Rattus norvegicus, UniProt Q80Z39); assay: Agonist activity at rat GPR109A expressed in T-REx-CHO cells assessed as inhibition of forskolin-stimulated cAMP accumulation preincubated for 30 mins followed by forskolin stimulation and measured after 20 mins by TR-FRET assay; format: functional, cell-based
Hydroxycarboxylic acid receptor 2, sequence (Q80Z39 whole entry): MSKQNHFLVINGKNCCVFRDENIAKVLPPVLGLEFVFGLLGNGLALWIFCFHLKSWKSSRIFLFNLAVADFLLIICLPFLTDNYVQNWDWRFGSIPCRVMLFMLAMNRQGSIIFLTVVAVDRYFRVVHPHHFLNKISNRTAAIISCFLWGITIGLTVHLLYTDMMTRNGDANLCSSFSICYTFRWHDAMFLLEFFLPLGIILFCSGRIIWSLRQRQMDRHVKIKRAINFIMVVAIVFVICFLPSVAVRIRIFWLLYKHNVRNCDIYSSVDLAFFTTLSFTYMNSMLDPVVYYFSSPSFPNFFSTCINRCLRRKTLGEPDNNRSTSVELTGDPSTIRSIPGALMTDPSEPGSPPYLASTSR

[10] = Octanol-water distribution co-efficient, log D of the compound at pH 7.4; format: physicochemical
[11] = Selectivity ratio of Ki for sigma-2 receptor in rat liver membranes to Ki for sigma-1 receptor in guinea pig brain membranes; format: cell membranes

C[C@H](C[Si](O)(O)[C@H](Cc1ccccc1)NC(=O)[C@@H]1CCCN1)C(N)=O
Ki (Chymotrypsinogen A): 107 nM

CN[C@@H](C)C(=O)N[C@@H](Cc1ccc(C#CC(=O)N[C@H]2C[C@@H](C(=O)N[C@@H]3CCCc4ccccc43)N(C(=O)[C@@H](NC(=O)[C@H](C)NC)C(C)(C)C)C2)cc1)C(=O)N1C[Si](C)(C)C[C@H]1C(=O)N[C@@H]1CCCc2ccccc21
IC50 [1]: 3 nM | IC50 [2]: 4 nM

COC(=O)/C(=N/NC(=O)c1ccc(CO[Si](C)(C)C(C)(C)C)o1)c1ccccc1
IC50 (MCF7): 13.3 µg/mL (≈ 31.9 µM)

C[Si](O)(O)CCCCCCC(=O)Nc1ccccc1
IC50 (Histone deacetylase 1): 2700 nM | IC50 (Histone deacetylase 2): 6300 nM

CCC(C)(C)O [AMYLENE HYDRATE]
MLC (Escherichia coli): 5.09% | MLC (Staphylococcus aureus): 4.17% | MLC (Pseudomonas aeruginosa): 3.96% | MLC (Enterococcus faecalis): 5.67%

C=CC(C)(C)O
MLC (Escherichia coli): 5.23% | MLC (Staphylococcus aureus): 4.37% | MLC (Pseudomonas aeruginosa): 3.67% | MLC (Enterococcus faecalis): 5.63%

C[C@H](CS)C(=O)N1C[Si](C)(C)C[C@H]1C(=O)O
IC50 [3]: 43 nM

C=C[Si](C)(C)O
MLC (Escherichia coli): 1.23% | MLC (Staphylococcus aureus): 1.04% | MLC (Pseudomonas aeruginosa): 1% | MLC (Enterococcus faecalis): 1.32%

c1ccc(CCN2CC[Si]3(CCCc4ccccc43)CC2)cc1
Ki [4]: 2.9 nM | Ki [5]: 39 nM

CCOC(=O)/C(=N/NC(=O)c1ccc(CO[Si](C)(C)C(C)(C)C)o1)c1ccccc1
IC50 (HT-29): 8.6 µg/mL (≈ 20 µM) | IC50 (MCF7): 13.3 µg/mL (≈ 30.9 µM)

COc1ccc(C(CN(C)C)[Si]2(O)CCCC2)cc1 (racemic)
IC50 [6]: 904 nM | IC50 [7]: 275 nM | IC50 [8]: 707 nM

COc1ccc(CN2CC[Si]3(CCCc4ccccc43)CC2)cc1
Ki [4]: 2.7 nM | Ki [5]: 460 nM

c1ccc(CCN2CCC3(CCCc4ccccc43)CC2)cc1
Ki [4]: 8 nM | Ki [5]: 34 nM

CC(C)OC(=O)/C(=N/NC(=O)c1ccc(CO[Si](C)(C)C(C)(C)C)o1)c1ccccc1
IC50 (HT-29): 6.4 µg/mL (≈ 14.4 µM) | IC50 (MCF7): 3.6 µg/mL (≈ 8.1 µM)

CC(C)(C)O [TERT-BUTANOL]
MLC (Escherichia coli): 13.54% | MLC (Staphylococcus aureus): 10.61% | MLC (Pseudomonas aeruginosa): 9.79% | MLC (Enterococcus faecalis): 13.33%

CCOc1cc(Cl)c(C(=O)NC(=O)Nc2nc3c(s2)C[Si](C)(c2ccc(OC)cc2)CC3)cc1N1CCOCC1 (centres undefined)
EC50 (Protein Gpr81): 1000 nM | EC50 [9]: 1200 nM | logD [10]: 4.8

CC[Si](C)(C)O
MLC (Escherichia coli): 1.04% | MLC (Staphylococcus aureus): 0.8% | MLC (Pseudomonas aeruginosa): 0.87% | MLC (Enterococcus faecalis): 1.14%

CC(C)(O)c1ccccc1
MLC (Escherichia coli): 0.96% | MLC (Staphylococcus aureus): 0.78% | MLC (Pseudomonas aeruginosa): 0.71% | MLC (Enterococcus faecalis): 0.93%

CC(C)CCN1CC[Si]2(CCCc3ccccc32)CC1
Ki [4]: 0.3 nM | Ki [5]: 19 nM | Ratio Ki [11]: 63

CCOc1cc(Cl)c(C(=O)NC(=O)Nc2nc3c(s2)CCCC3)cc1N1CCOCC1
EC50 (Protein Gpr81): 240 nM | EC50 [9]: 2100 nM | logD [10]: 4.2

c1ccc(CN2CC[Si]3(CCCc4ccccc43)CC2)cc1
Ki [4]: 1.1 nM | Ki [5]: 243 nM | Ratio Ki [11]: 221

CCOc1cc(Cl)c(C(=O)NC(=O)Nc2nc3c(s2)C[Si](C)(c2c(OC)cccc2OC)CC3)cc1N1CCOCC1 (centres undefined)
EC50 (Protein Gpr81): 1200 nM | EC50 [9]: 1300 nM | logD [10]: 4.6

c1ccc(CN2CCC3(CCCc4ccccc43)CC2)cc1
Ki [4]: 2 nM | Ki [5]: 44 nM

CC(C)CCN1CCC2(CCCc3ccccc32)CC1
Ki [4]: 1.8 nM | Ki [5]: 5.5 nM

C[Si](C)(O)c1ccccc1
MLC (Escherichia coli): 0.27% | MLC (Staphylococcus aureus): 0.26% | MLC (Pseudomonas aeruginosa): 0.35% | MLC (Enterococcus faecalis): 0.42%

COc1ccc(CN2CCC3(CCCc4ccccc43)CC2)cc1
Ki [4]: 3.8 nM | Ki [5]: 206 nM
